Measurements reported in ChEMBL document CHEMBL5543126, “Combinatorial Ubiquitination REal-time PROteolysis (CURE-PROs): A Modular Platform for Generating Reversible, Self-Assembling Bifunctional Targeted Degraders” (J Med Chem, 2024).
Active and inactive are the calls of the source. The rule behind the calls is not given here.

Tests used:
[1] = molecular target: T1, von Hippel-Lindau disease tumor suppressor/Bromodomain-containing protein 4 (Homo sapiens, UniProt O60885+P40337); test: (§1) PROTAC activity at BRD4/VHL in human MCF7 cells assessed as induction of BRD4 degradation by measuring residual activity at 1 uM incubated for 24 hrs in presence of 100 nM VHL based ligand (2S,4R)-1-((S)-2-(2,3-dihydroxybenzamido)-3,3-dimethylbutanoyl)-4-hydroxy-N-(4-(4-methylthiazol-5-yl)benzyl)pyrrolidine-2-carboxamide by Western blot based Combinatorial Ubiquitination Real-time PROteolysis analysis; type: cell-based
[2] = molecular target: T1, von Hippel-Lindau disease tumor suppressor/Bromodomain-containing protein 4; test: as §1, with “100 nM” for “1 uM”; type: cell-based
[3] = molecular target: T1, von Hippel-Lindau disease tumor suppressor/Bromodomain-containing protein 4; test: as §1, with “at 10” for “at 1”, “of 300” for “of 100”; type: cell-based
[4] = molecular target: T1, von Hippel-Lindau disease tumor suppressor/Bromodomain-containing protein 4; test: as §1, with “at 10” for “at 1”, “of” for “of 100 nM”; type: cell-based
[5] = molecular target: T1, von Hippel-Lindau disease tumor suppressor/Bromodomain-containing protein 4; test: as §1, with “30 nM” for “1 uM”, “10 uM” for “100 nM”; type: cell-based
[6] = molecular target: T1, von Hippel-Lindau disease tumor suppressor/Bromodomain-containing protein 4; test: as §1, with “at VHL/BRD4” for “at BRD4/VHL”, “degradation” for “degradation by measuring residual activity”, “at 10” for “at 1”, “uM measured at 4” for “uM incubated for 24”, “of” for “of 100 nM”; type: cell-based
[7] = molecular target: T1, von Hippel-Lindau disease tumor suppressor/Bromodomain-containing protein 4; test: as §1, with “300 nM” for “1 uM”, “1 uM” for “100 nM”; type: cell-based
[8] = molecular target: T1, von Hippel-Lindau disease tumor suppressor/Bromodomain-containing protein 4; test: as §1, with “300” for “100”; type: cell-based
[9] = molecular target: T1, von Hippel-Lindau disease tumor suppressor/Bromodomain-containing protein 4; test: as §1, with “1 uM” for “100 nM”; type: cell-based
[10] = molecular target: T1, von Hippel-Lindau disease tumor suppressor/Bromodomain-containing protein 4; test: as §1, with “300 nM” for “1 uM”; type: cell-based
[11] = molecular target: T1, von Hippel-Lindau disease tumor suppressor/Bromodomain-containing protein 4; test: as §1, with “at 10” for “at 1”; type: cell-based
[12] = molecular target: T1, von Hippel-Lindau disease tumor suppressor/Bromodomain-containing protein 4; test: as §1, with “VHL/BRD4” for “BRD4/VHL”, “HEK293” for “human MCF7”, “Tmax” for “residual activity”, “measured every 15 mins” for “incubated”, “of” for “of 100 nM”, “HiBiT” for “Western blot”; type: cell-based
[13] = molecular target: T1, von Hippel-Lindau disease tumor suppressor/Bromodomain-containing protein 4; test: (§2) PROTAC activity at BRD4/VHL in human MCF7 cells assessed as induction of BRD4 degradation by measuring residual activity at 3 uM incubated for 24 hrs in presence of 10 uM BRD4 based ligand ((4S)-6-(4-chlorophenyl)-4-(2-(ethylamino)-2-oxoethyl)-1-methyl4Hbenzo[f][1,2,4]triazolo [4,3-a][1,4]diazepin-8-yl)boronic acid by Western blot based Combinatorial Ubiquitination Real-time PROteolysis analysis; type: cell-based
[14] = molecular target: T1, von Hippel-Lindau disease tumor suppressor/Bromodomain-containing protein 4; test: as §2, with “at 10” for “at 3”, “of 3” for “of 10”; type: cell-based
[15] = molecular target: T1, von Hippel-Lindau disease tumor suppressor/Bromodomain-containing protein 4; test: as §2, with “reduction in” for “induction of”, “level” for “degradation by measuring residual activity at 3 uM”, “VHL” for “10 uM BRD4”; type: cell-based
[16] = molecular target: T1, von Hippel-Lindau disease tumor suppressor/Bromodomain-containing protein 4; test: as §2, with “300 nM” for “10 uM”; type: cell-based
[17] = molecular target: T1, von Hippel-Lindau disease tumor suppressor/Bromodomain-containing protein 4; test: as §2, with “at 10” for “at 3”; type: cell-based
[18] = molecular target: T1, von Hippel-Lindau disease tumor suppressor/Bromodomain-containing protein 4; test: (§3) PROTAC activity at VHL/BRD4 in HEK293 cells assessed as induction of BRD4 degradation by measuring degradation rate at 0.3 uM measured every 15 mins for 24 hrs in presence of BRD4 based ligand ((4S)-6-(4-chlorophenyl)-4-(2-(ethylamino)-2-oxoethyl)-1-methyl4Hbenzo[f][1,2,4]triazolo [4,3-a][1,4]diazepin-8-yl)boronic acid by HiBiT based Combinatorial Ubiquitination Real-time PROteolysis analysis; type: cell-based
MV4-11 = test: Antitumor activity against human MV4-11 cells xenografted in nude mouse assessed as reduction in BRD4 level in tumor at 10 mg/kg, ip administered for 4 hrs and measured at 9 to 12 hrs in presence of BRD4 based ligand ((4S)-6-(4-chlorophenyl)-4-(2-(ethylamino)-2-oxoethyl)-1-methyl4Hbenzo[f][1,2,4]triazolo [4,3-a][1,4]diazepin-8-yl)boronic acid; type: functional, organism-based; conditions: time 9-12 hrs
[19] = molecular target: T1, von Hippel-Lindau disease tumor suppressor/Bromodomain-containing protein 4; test: as §2, with “30 nM” for “3 uM”, “3” for “10”; type: cell-based
[20] = molecular target: T1, von Hippel-Lindau disease tumor suppressor/Bromodomain-containing protein 4; test: as §2, with “30 nM” for “3 uM”, “300 nM” for “10 uM”; type: cell-based
[21] = molecular target: T1, von Hippel-Lindau disease tumor suppressor/Bromodomain-containing protein 4; test: as §3, with “1” for “0.3”; type: cell-based
[22] = molecular target: T1, von Hippel-Lindau disease tumor suppressor/Bromodomain-containing protein 4; test: as §2, with “at 1” for “at 3”; type: cell-based
[23] = molecular target: T1, von Hippel-Lindau disease tumor suppressor/Bromodomain-containing protein 4; test: as §2, with “100 nM” for “3 uM”; type: cell-based

T1 sequence (P40337 whole entry, looked up, other chains not shown): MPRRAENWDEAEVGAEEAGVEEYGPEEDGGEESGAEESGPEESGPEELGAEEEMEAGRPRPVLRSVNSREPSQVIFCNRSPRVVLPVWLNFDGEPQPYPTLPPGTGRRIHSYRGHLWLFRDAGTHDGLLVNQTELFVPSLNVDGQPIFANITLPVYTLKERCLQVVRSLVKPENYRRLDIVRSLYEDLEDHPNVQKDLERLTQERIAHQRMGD

CCNC(=O)C[C@@H]1N=C(c2ccc(Cl)cc2)c2cc(B(O)O)ccc2-n2c(C)nnc21
Activity [1]: 56%
Activity [2]: 97%
Activity [3]: 48%
Activity [4]: 95%
Activity [5]: 76%
Activity [6]: 100%
Activity [7]: 38%
Activity [8]: 48%
Activity [9]: 35%
Activity [10]: 72%
Activity [11]: 55%
Tmax [12]: 19.5 h

Cc1ncsc1-c1ccc(CNC(=O)[C@@H]2C[C@@H](O)CN2C(=O)[C@@H](NC(=O)c2cccc(O)c2O)C(C)(C)C)cc1
Activity [13]: 16%
Activity [14]: 7%
Activity [15]: Active
DC50 [15]: 358 nM
Activity [16]: 39%
Activity [17]: 6%
Activity [18]: 0.144 h⁻¹
Activity (MV4-11): Active
Activity [19]: 90%
Activity [20]: 104%
Activity [21]: 0.548 h⁻¹
Activity [22]: 20%
Activity [23]: 87%
